Assay results as given in the supplement of paper PMC11208160.

Experiment: recombinant UMI read abundance after kanamycin selection (control-corrected) (log10(CPM+1)); higher = more efficient recombination; extreme values may be limits of the assay; sequences stand for … in AGTGCAGAGAAAATCGGCCAGTTTTCTCTGCCTGCAGTCCGCATGCCGTGGGACCCCTTGGGTTCTAACCTGTTGCCTAGATTTATGCAGCGGACTGCCTTTCTCCCAAAGTGATAAACCGG…AGGTTGGTTTCACT; site = the 11-nt donor
Outline: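 After plating on IPTG (0.07 mM) plus kanamycin, or unselected, in two replicates, recombinant UMIs were PCR-amplified across the donor–target junction and sequenced. The cells were Escherichia coli co-electroporated with a UMI-tagged donor and donor-binding-loop pair library and a target plasmid with a fixed target and T7-inducible IS621 bridge recombinase. Values are log10(CPM+1), with CPM averaged over replicates and scaled by control-derived factors.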
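Further: IS621 bridge recombinase in Escherichia coli cells against a fixed T5 target plasmid.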

Sequence | recombinant UMI read abundance (log10)
GTTAACGCATGGACCGGTTTTCCCGGTAATCCGTATTTGGA (site GTTAACGCTTC) | 0.944
GTTACAACATGGACCGGTTTTCCCGGTAATCCGTATTTGAT (site GTTACAACTAT) | 0.492
GTTACGTCATGGACCGGTTTTCCCGGTAATCCGTATTTGTT (site GATACGTCTAA) | 0.0159
GTTACGTCATGGACCGGTTTTCCCGGTAATCCGTATTTGTT (site GCTACGTCTAA) | 0.00335
GTTACGTCATGGACCGGTTTTCCCGGTAATCCGTATTTGTT (site GGTACGTCTAA) | 0.00806
GTTACGTCATGGACCGGTTTTCCCGGTAATCCGTATTTGTT (site GTTACGTCTAA) | 0.504
GTTAGAACATGGACCGGTTTTCCCGGTAATCCGTATTTGGC (site ATTAGAACTGC) | 0
GTTAGAACATGGACCGGTTTTCCCGGTAATCCGTATTTGGC (site CTTAGAACTGC) | 0
GTTAGAACATGGACCGGTTTTCCCGGTAATCCGTATTTGGC (site GATAGAACTGC) | 0
GTTAGAACATGGACCGGTTTTCCCGGTAATCCGTATTTGGC (site GCTAGAACTGC) | 0
GTTAGAACATGGACCGGTTTTCCCGGTAATCCGTATTTGGC (site GGTAGAACTGC) | 0
GTTAGAACATGGACCGGTTTTCCCGGTAATCCGTATTTGGC (site GTAAGAACTGC) | 0
GTTAGAACATGGACCGGTTTTCCCGGTAATCCGTATTTGGC (site GTCAGAACTGC) | 0
GTTAGAACATGGACCGGTTTTCCCGGTAATCCGTATTTGGC (site GTGAGAACTGC) | 0
GTTAGAACATGGACCGGTTTTCCCGGTAATCCGTATTTGGC (site GTTAAAACTGC) | 0
GTTAGAACATGGACCGGTTTTCCCGGTAATCCGTATTTGGC (site GTTACAACTGC) | 0
GTTAGAACATGGACCGGTTTTCCCGGTAATCCGTATTTGGC (site GTTAGAACTAC) | 0.00468
GTTAGAACATGGACCGGTTTTCCCGGTAATCCGTATTTGGC (site GTTAGAACTCC) | 0.0522
GTTAGAACATGGACCGGTTTTCCCGGTAATCCGTATTTGGC (site GTTAGAACTGA) | 0
GTTAGAACATGGACCGGTTTTCCCGGTAATCCGTATTTGGC (site GTTAGAACTGC) | 1.59
GTTAGAACATGGACCGGTTTTCCCGGTAATCCGTATTTGGC (site GTTAGAACTGG) | 0
GTTAGAACATGGACCGGTTTTCCCGGTAATCCGTATTTGGC (site GTTAGAACTGT) | 0
GTTAGAACATGGACCGGTTTTCCCGGTAATCCGTATTTGGC (site GTTAGAACTTC) | 0

Sequence | recombinant UMI read abundance (log10)
GTTAGAACATGGACCGGTTTTCCCGGTAATCCGTATTTGGC (site GTTAGACCTGC) | 0
GTTAGAACATGGACCGGTTTTCCCGGTAATCCGTATTTGGC (site GTTAGAGCTGC) | 0.0184
GTTAGAACATGGACCGGTTTTCCCGGTAATCCGTATTTGGC (site GTTAGATCTGC) | 0.83
GTTAGAACATGGACCGGTTTTCCCGGTAATCCGTATTTGGC (site GTTAGCACTGC) | 0.506
GTTAGAACATGGACCGGTTTTCCCGGTAATCCGTATTTGGC (site GTTAGGACTGC) | 0.0154
GTTAGAACATGGACCGGTTTTCCCGGTAATCCGTATTTGGC (site GTTAGTACTGC) | 0
GTTAGAACATGGACCGGTTTTCCCGGTAATCCGTATTTGGC (site GTTATAACTGC) | 1.54
GTTAGAACATGGACCGGTTTTCCCGGTAATCCGTATTTGGC (site GTTCGAACTGC) | 0
GTTAGAACATGGACCGGTTTTCCCGGTAATCCGTATTTGGC (site GTTGGAACTGC) | 0.696
GTTAGAACATGGACCGGTTTTCCCGGTAATCCGTATTTGGC (site GTTTGAACTGC) | 0
GTTAGAACATGGACCGGTTTTCCCGGTAATCCGTATTTGGC (site TTTAGAACTGC) | 0
GTTAGAACATGGACCGGTTTTCCCGGTAATCCGTATTTGGT (site GTTAGAACTAC) | 0.908
GTTAGAACATGGACCGGTTTTCCCGGTAATCCGTATTTGGT (site GTTAGAACTCC) | 0.0129
GTTAGAACATGGACCGGTTTTCCCGGTAATCCGTATTTGGT (site GTTAGAACTGC) | 0
GTTAGAACATGGACCGGTTTTCCCGGTAATCCGTATTTGGT (site GTTAGAACTTC) | 0.0194
GTTAGACCATGGACCGGTTTTCCCGGTAATCCGTATTTGGA (site GTTAGACCTTC) | 0.00772
GTTAGACCATGGACCGGTTTTCCCGGTAATCCGTATTTGGC (site GTTAGAACTGC) | 0
GTTAGACCATGGACCGGTTTTCCCGGTAATCCGTATTTGGC (site GTTAGACCTGC) | 0
GTTAGACCATGGACCGGTTTTCCCGGTAATCCGTATTTGGC (site GTTAGAGCTGC) | 0
GTTAGACCATGGACCGGTTTTCCCGGTAATCCGTATTTGGC (site GTTAGATCTGC) | 0
GTTAGAGCATGGACCGGTTTTCCCGGTAATCCGTATTTGGC (site GTTAGAACTGC) | 2.02
GTTAGAGCATGGACCGGTTTTCCCGGTAATCCGTATTTGGC (site GTTAGACCTGC) | 0
GTTAGAGCATGGACCGGTTTTCCCGGTAATCCGTATTTGGC (site GTTAGAGCTGC) | 2.22

Sequence | recombinant UMI read abundance (log10)
GTTAGAGCATGGACCGGTTTTCCCGGTAATCCGTATTTGGC (site GTTAGATCTGC) | 1.51
GTTAGGACATGGACCGGTTTTCCCGGTAATCCGTATTTGGC (site GTTAGAACTGC) | 1.16
GTTAGGACATGGACCGGTTTTCCCGGTAATCCGTATTTGGC (site GTTAGCACTGC) | 0
GTTAGGACATGGACCGGTTTTCCCGGTAATCCGTATTTGGC (site GTTAGGACTGC) | 2.84
GTTAGGACATGGACCGGTTTTCCCGGTAATCCGTATTTGGC (site GTTAGTACTGC) | 0
GTTATTCCATGGACCGGTTTTCCCGGTAATCCGTATTTGGT (site GTTATTCCTAC) | 0.469
GTTATTCCATGGACCGGTTTTCCCGGTAATCCGTATTTGGT (site GTTCTTCCTAC) | 0
GTTATTCCATGGACCGGTTTTCCCGGTAATCCGTATTTGGT (site GTTGTTCCTAC) | 0.00973
GTTATTCCATGGACCGGTTTTCCCGGTAATCCGTATTTGGT (site GTTTTTCCTAC) | 0
GTTCACGCATGGACCGGTTTTCCCGGTAATCCGTATTTGTT (site GTTCACGCTAA) | 1
GTTCATACATGGACCGGTTTTCCCGGTAATCCGTATTTGTG (site GTTCATACTCA) | 0.505
GTTCCGGCATGGACCGGTTTTCCCGGTAATCCGTATTTGCC (site GTTCCGGCTGG) | 0
GTTCGAGCATGGACCGGTTTTCCCGGTAATCCGTATTTGAA (site GTTCGAGCTTA) | 0.307
GTTCGAGCATGGACCGGTTTTCCCGGTAATCCGTATTTGAA (site GTTCGAGCTTC) | 0
GTTCGAGCATGGACCGGTTTTCCCGGTAATCCGTATTTGAA (site GTTCGAGCTTG) | 0
GTTCGAGCATGGACCGGTTTTCCCGGTAATCCGTATTTGAA (site GTTCGAGCTTT) | 1.41
GTTCGAGCATGGACCGGTTTTCCCGGTAATCCGTATTTGCT (site GTTCGAGCTAG) | 1.9
GTTCGAGCATGGACCGGTTTTCCCGGTAATCCGTATTTGCT (site GTTCGAGCTCG) | 0.664
GTTCGAGCATGGACCGGTTTTCCCGGTAATCCGTATTTGCT (site GTTCGAGCTGG) | 0.928
GTTCGAGCATGGACCGGTTTTCCCGGTAATCCGTATTTGCT (site GTTCGAGCTTG) | 1.03
GTTCGAGCATGGACCGGTTTTCCCGGTAATCCGTATTTGGA (site GTTCGAGCTTA) | 0.635
GTTCGAGCATGGACCGGTTTTCCCGGTAATCCGTATTTGGA (site GTTCGAGCTTC) | 0.499
